Patent US20090111781A1, “Use of Cymipristone Type Compounds in Aids Treatment” (SHANGHAI THREE-ALLIANCE BIOTECHNOLOGIES CO., LTD., priority 2005, published 2009)
Values joined by “and” are separate entries in the source; they are usually repeats but may differ in a detail not shown here. Equal entries are not always repeated.

Tests used:
[1] = test system: thymus gland cells; assay: Anti-glucocorticoid activity test, [3H]-TdR incorporation in rat thymus gland cells; type: cell-based; settings: for Antagonism against dexamethasone (incorporation rate of [3H]-TdR): n = 4
Protocol: Clean female SD rats, body weight 200-250 g, are fed with certain quantity of food and freely drink water. The temperature is controlled at about 24° C. and an illumination cycle are for 11 hours by day and 13 hours at night. All animals are observed for 1 week before experiment. Rats are anesthetized with ethyl ether. Incisions are made on two sides below costal arch of ribs on dorsal position of rats to extirpate adrenal glands. The rats are fed with physiological saline after operation. On the seventh day, animals are acutely executed. Take out thymus gland to place in to HBSS buffer solution, wash twice, remove connective tissue, cut the tissue with scissors, lightly grind with homogenizer, filter with three layers of gauze, and centrifuge the filtrate for 5 min (500 rpm). Wash the precipitated cells twice with HBSS, re-suspend the cells in RPMI1640 culture medium for cell count and cell survival rate determination, and adjust cell concentration to 1×10^7/ml. Determination of anti-glucocorticoid activity: Add tested compound into culture medium, reaction concentration 6×10^−[…], and place in 37° C. incubator for 3 hours. Add thymus gland cells to make cell concentration to become 10^7/ml and incubate at 37° C. for 3 hours. Add 1 μCi of label substance, mix, and incubate for 1 hour. Add 100 μl of ice cold 5% trichloroacetic acid to end the reaction. Place the test tube on ice and wash twice with 2 ml of ice cold 5% trichloroacetic acid and centrifuge twice, 500 rpm×5 min, Add 0.5 ml of 1N NaOH to dissolve the precipitated cells, pipet out the liquid, dry the residue with cotton stick, place into same scintillation bottle, and determine the radioactivity by liquid scintillation counter.
Calculate the incorporation rate of [^3H]-TdR:
In which: T=[^3H]-TdR count without presence of compound, Td=count with presence of compound, and NSB=non-specific adsorption.
Inhibition rate=100%−incorporation rate

[2] = test system: HIV-1 IIIB P24 antigen; assay: microbe, parasite or virus in culture; type: cell-based; settings: for Selection index (SI): MT-4
Protocol: (1) Inoculate MT4 cells into 96-pore cell culture plate, 1×10^5 cells/ml, infect with HIV-1-IIIB virus strain of about 100TCID50, and add cymipristone solution at the same time, its concentration is below 100 μg/ml, triply diluted to 8 concentrations. Set virus TCID50 determination group and cell control group. Each concentration is duplicated in two pore. Incubate under 37° C., 5% CO2 and saturated humidity in an incubator.
Daily observe the cytopathy in above culture plate by microscope, record the degree of cytopathy with routine method, and calculate the 50% toxic concentration (TC50) and maximum nontoxic concentration (TC0) of drug according to Reed & Muench method. (3) Determination on HIV-1 P24 Antigen with Supernatant Liquid Pipetted from Cell Culture Plate Added Drug After 4 days (96 hours), pipette out the supernatant liquid from cell culture added drug and freeze HIV-1 P24 antigen used for determination.
Take the supernatant liquid on the fourth day, combine the liquid from two pore, and dilute by 1:100, Determine the HIV-1 P24 antigen titer (OD value) by ELISA method according to the instruction of HIV-1 P24 antigen reagent kit. […] At the same time, determine the 50% infection concentration of HIV-1/IIIB virus strain in MT-4 cells and virus infection quantity (TCID50).
(1) Calculation of TC50, IC50 and SI of Drug in Cell Culture According to Reed & Muench Method

[3] = target: T1, progestogen receptor (PRa) (Homo sapiens, UniProt P06401); assay: Binding activity on human nuclear receptor PR; settings: mean ± SD, n = 4
T1 sequence (P06401 1-769 isoform P06401-2): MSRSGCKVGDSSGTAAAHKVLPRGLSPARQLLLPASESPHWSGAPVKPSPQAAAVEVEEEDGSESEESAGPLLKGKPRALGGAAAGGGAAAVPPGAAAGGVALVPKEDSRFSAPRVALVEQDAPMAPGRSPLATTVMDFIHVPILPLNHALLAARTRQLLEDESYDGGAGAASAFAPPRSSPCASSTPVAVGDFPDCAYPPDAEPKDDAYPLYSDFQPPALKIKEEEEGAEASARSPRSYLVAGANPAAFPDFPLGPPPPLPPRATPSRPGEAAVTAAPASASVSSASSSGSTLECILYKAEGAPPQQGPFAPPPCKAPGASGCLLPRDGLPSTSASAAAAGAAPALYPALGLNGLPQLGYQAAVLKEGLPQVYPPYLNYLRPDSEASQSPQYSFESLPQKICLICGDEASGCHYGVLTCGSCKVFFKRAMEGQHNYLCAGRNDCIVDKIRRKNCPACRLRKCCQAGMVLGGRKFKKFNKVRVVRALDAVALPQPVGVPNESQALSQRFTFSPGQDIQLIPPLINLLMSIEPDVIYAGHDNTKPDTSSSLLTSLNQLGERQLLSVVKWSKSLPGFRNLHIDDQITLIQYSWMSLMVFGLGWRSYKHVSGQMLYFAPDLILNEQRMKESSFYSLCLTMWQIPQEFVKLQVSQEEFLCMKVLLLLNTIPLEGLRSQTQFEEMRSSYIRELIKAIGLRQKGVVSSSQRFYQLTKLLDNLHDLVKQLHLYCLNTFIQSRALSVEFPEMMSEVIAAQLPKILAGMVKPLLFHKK
Protocol: Buffer solution is composed of 25 mM NaPO4, 20 mM NaMoO4, 10 mM KF and 10% glycerol (pH=7.3) and stored under 4° C. Stock solution is prepared with CHAPS and DTT and stored under −20° C. […] Add 2.5 μl/hole into 96-pore plate. Take out appropriate amount of buffer solution reserve into solution to make the final concentration of CHAPS and DDT to become 0.25 mM and 2 mM respectively. Add protease inhibitors (aprotinin and leupeptin) to make its final concentration to become 1 μg/μl, and place in an ice bath. After adding human nuclear receptor GR (1:8), PR (1:100), ER (1:2000), AR (1:200) and MR (1:40) into the reaction system respectively, adequately mix suitable quantity of [^3H]-dexamethasone, [^3H]-progesterone, [^3H]-estradiol and [^3H]-DHT (from Amersham), rapidly add into 96-pore plate (100 μl/pore) and incubate overnight under 4° C. On the next day, add 25 μl of hydroxyapatite suspension into each pore and mix with shaking. After incubating for 10 min, separate by centrifuge for 3 min at 2500 rpm. The precipitate is washed with 100 μl of buffer solution and separated by centrifuge twice. Add 150 μl of scintillation solution (from Perkin Elmer) into each pore, mix with shaking and count by MicroBeta counter.

[4] = Rattus norvegicus, read-out: Residual inhibition rate of dexamethasone
[5] = Human immunodeficiency virus 1, IIIB, MT4, read-out: Inhibition rate on HIV-1 P24 antigen

Structure (SMILES): CC#C[C@]1(O)CC[C@H]2[C@@H]3CCC4=CC(=O)CCC4=C3[C@@H](c3ccc(N(C)C4CCCCC4)cc3)C[C@@]21C [Cymipristone, 11β-[4-(N-methyl-N-cyclohexylamino)phenyl]-17α-(1-propynyl)-17β-hydroxyl-4,9-estradiene-3-one]
- Anti-glucocorticoid activity (in words) [1]: Result shows that cymipristone has anti-glucocorticoid activity.
- activity at 0.06 µM [1, 4]: 35.2 ± 2.4%
- activity at 0.2 µM [1, 4]: 57.7 ± 3.5%
- activity at 0.6 µM [1, 4]: 42.2 ± 1.9%
- activity at 2 µM [1, 4]: 64.1 ± 5.6%
- Antagonism against dexamethasone (incorporation rate of [3H]-TdR) ([1]; cymipristone 2 × 10^−6 mol/L with dexamethasone 6×10^−8 mol/L): 63.6 ± 5.1%
- Antagonism against dexamethasone (incorporation rate of [3H]-TdR) ([1]; cymipristone 2 × 10^−7 mol/L with dexamethasone 6×10^−8 mol/L): 67.2 ± 2.9%
- Antagonism against dexamethasone (incorporation rate of [3H]-TdR) ([1]; cymipristone 6 × 10^−7 mol/L with dexamethasone 6×10^−8 mol/L): 76.0 ± 3.8%
- Antagonism against dexamethasone (incorporation rate of [3H]-TdR) ([1]; cymipristone 6 × 10^−8 mol/L with dexamethasone 6×10^−8 mol/L): 80.0 ± 4.3%
- IC50 ([2]; Human immunodeficiency virus 1, IIIB, MT4, read-out: IC50 on HIV-1 IIIB P24 antigen): 1.3 µg/mL and 2.62 µM
- inhibition at 0.05 µg/mL [2, 5]: 14%
- inhibition at 0.14 µg/mL [2, 5]: 17%
- inhibition at 0.41 µg/mL [2, 5]: 13%
- inhibition at 1.23 µg/mL [2, 5]: 29%
- inhibition at 3.7 µg/mL [2, 5]: 93%
- Selection index (SI) ([2]; SI=TC50/IC50, CPE cytotoxicity): 5.93
- Selection index (SI) ([2]; SI=TC50/IC50, MTT cytotoxicity): 23.28
- Effect on HIV-1 P24 antigen formation in MT-4 cell culture (in words) ([2]; conclusion): significant inhibitory effect
- IC50 [3]: 5.2 ± 0.26 nM
